Test systems include HL-60(TB) leukemia; NCI-H460 lung; MDA-MB-435; SNB-19 CNS; COLO 205 colon; HOP-92 NSCLC; SF-295 CNS; M14 melanoma; CAKI-1 renal.
Test in all cases: DTP human tumour cell line panel, 48 h

Where “and” joins values, the source holds several entries; their conditions need not be identical. Equal values may be shown once.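 Growth conditions: 96-well plates. Treatment: test compound, 48 hours, 5 concentrations. Analysis: linear interpolation between bracketing concentrations; unreached endpoints set to highest concentration. GI50 marks 50% less growth. TGI denotes the concentration required for complete inhibition of growth.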 Bounds are passed on as bounds.

As for `OC1(C2(c3ccc(Cl)cc3)CCCC2)c2ccccc2C2=NCCN21` (stereo not given), the TGI (usually the concentration at which net growth stops) in the assay on HL-60(TB) leukemia turned out to be 33.2 µM; with NCI-H460 lung, 29 µM; in the assay with MDA-MB-435, 26.7 µM; in the assay with SNB-19 CNS, 30.5 µM; in the assay on COLO 205 colon, 23.9 µM; in the assay on HOP-92 NSCLC it was 28.6 µM. The concentration for total growth inhibition (TGI) in the assay on SF-295 CNS is 30.7 µM; in the assay on M14 melanoma it was 28.6 µM; in the assay on CAKI-1 renal, 28.9 µM.
Turning to `CC1(C)CC[C@]2(C(=O)O)CC[C@]3(C)C(=CC[C@@H]4[C@@]5(C)CC[C@H](OC6OC(CO)C(O)C(O)C6O)C(C)(C)[C@@H]5CC[C@]43C)[C@@H]2C1` (stereo not given in full), the TGI in the assay on HL-60(TB) leukemia came to 3.83 µM; in the assay on NCI-H460 lung, 14.3 µM; in the assay on MDA-MB-435 it was 3.39 µM; in the assay with SNB-19 CNS, 2.89 µM; with COLO 205 colon, 3.21 µM; in the assay on HOP-92 NSCLC, 3.06 µM. Further, the figures for the concentration for total growth inhibition (TGI) with SF-295 CNS, in the assay with M14 melanoma and in the assay on CAKI-1 renal were 3.2 µM, 3.12 µM and 5.93 µM, respectively.
With `C=CC(C)(C)n1cc(C2=C(O)C(=O)C(c3c(CC=C(C)C)[nH]c4ccccc34)=C(O)C2=O)c2ccccc21`, the TGI in the assay with HL-60(TB) leukemia was 4.69 µM; in the assay on NCI-H460 lung it was 4.36 µM; in the assay on MDA-MB-435, 2.38 µM; with SNB-19 CNS, 10.8 µM; in the assay with COLO 205 colon it was 3.23 µM; in the assay with HOP-92 NSCLC, 3.35 µM. For the same molecule, the TGI came to 4.1 µM in the assay with SF-295 CNS, 4.24 µM in the assay with M14 melanoma and 7.16 µM in the assay with CAKI-1 renal.
`OC[C@@H](O)[C@H](O)[C@@H](O)/C=N/Nc1ccc(Cl)nn1`: the TGI in the assay with HL-60(TB) leukemia, in the assay on NCI-H460 lung, in the assay on MDA-MB-435, with SNB-19 CNS, in the assay with COLO 205 colon and in the assay on HOP-92 NSCLC was over 100 µM throughout. For the same molecule, the TGI with SF-295 CNS, in the assay on M14 melanoma and in the assay on CAKI-1 renal was over 100 µM in each case.
On to `COc1ccc(C(=O)N(Cc2cccnc2)C(=S)N(Cc2cccnc2)C(=O)c2ccc(OC)cc2)cc1`, for which the TGI in the assay with HL-60(TB) leukemia, with NCI-H460 lung, with MDA-MB-435, in the assay on SNB-19 CNS, in the assay on COLO 205 colon and in the assay on HOP-92 NSCLC was over 100 µM throughout. Also, the total growth inhibition concentration (TGI) in the assay on SF-295 CNS, in the assay on M14 melanoma and in the assay on CAKI-1 renal was over 100 µM throughout.
For `C[C@H](CO)C1=CC(C#C[Si](C)(C)C)N(C(=O)Oc2ccccc2)c2ccccc21` (stereo not given in full), the TGI is 47.2 µM in the assay on HL-60(TB) leukemia; 28.6 µM in the assay on NCI-H460 lung; 7.25 µM in the assay with MDA-MB-435; 29.8 µM in the assay on SNB-19 CNS; 24.3 µM in the assay with COLO 205 colon; 28.7 µM in the assay on HOP-92 NSCLC. Also, the TGI with SF-295 CNS is 14.3 µM; with M14 melanoma it was 22 µM; in the assay with CAKI-1 renal, 28.7 µM.
For `CC1=CC(=O)/C(=C/N2C(=O)CNC2=S)C(=O)O1`, the total growth inhibition concentration (TGI) in the assay on HL-60(TB) leukemia, with NCI-H460 lung, in the assay with MDA-MB-435, in the assay with SNB-19 CNS, with COLO 205 colon and with HOP-92 NSCLC was over 100 µM in each case. Also, the TGI with SF-295 CNS, in the assay with M14 melanoma and in the assay with CAKI-1 renal was over 100 µM throughout.
For the molecule `COc1ccc2[nH]c3c(C)c4ncccc4c(C)c3c2c1`, the TGI was 5.85 µM in the assay on HL-60(TB) leukemia; 5.46 µM in the assay on NCI-H460 lung; 3.21 µM in the assay on MDA-MB-435; over 10 µM with SNB-19 CNS; over 10 µM in the assay on COLO 205 colon; over 10 µM in the assay with HOP-92 NSCLC. Further, the TGI in the assay with SF-295 CNS is 9.26 µM; in the assay with M14 melanoma it was 3.24 µM; with CAKI-1 renal, over 10 µM.
Consider `Fc1cc2nc3n(c2cc1F)C(c1c(Cl)cccc1Cl)SC3` (stereo not given), for which the TGI is 70.9 µM with HL-60(TB) leukemia; 26.6 µM in the assay with NCI-H460 lung; 28.9 µM in the assay with MDA-MB-435; 27 µM in the assay on SNB-19 CNS; 36.3 µM in the assay with COLO 205 colon; 30.8 µM in the assay on HOP-92 NSCLC. Further, the TGI with SF-295 CNS is 26.2 µM; in the assay with M14 melanoma it was 29 µM; with CAKI-1 renal, 27.1 µM.
For the molecule `COC(=O)C1SC[C@H]2C(=O)N(c3ccccc3)C(=O)N12` (stereo not given in full), the TGI with HL-60(TB) leukemia, in the assay with NCI-H460 lung, in the assay with MDA-MB-435, in the assay on SNB-19 CNS, in the assay with COLO 205 colon and in the assay with HOP-92 NSCLC was over 100 µM throughout. Further, the total growth inhibition concentration (TGI) in the assay on SF-295 CNS, with M14 melanoma and in the assay with CAKI-1 renal was over 100 µM in each case.
Take `COc1ccc(NC(=S)Nc2c(C)n(C)n(-c3ccccc3)c2=O)cc1`: the TGI in the assay on HL-60(TB) leukemia, with NCI-H460 lung, in the assay with MDA-MB-435, with SNB-19 CNS, in the assay on COLO 205 colon and with HOP-92 NSCLC was over 100 µM throughout. Moreover, the TGI in the assay with SF-295 CNS, in the assay with M14 melanoma and in the assay with CAKI-1 renal was over 100 µM throughout.
With `Cc1ccc(NC(=S)N=Nc2c(O)[nH]c3ccccc23)cc1`, the TGI in the assay with HL-60(TB) leukemia, in the assay with NCI-H460 lung, in the assay with MDA-MB-435, with SNB-19 CNS, with COLO 205 colon and with HOP-92 NSCLC was over 100 µM throughout. In addition, the TGI in the assay on SF-295 CNS, with M14 melanoma and with CAKI-1 renal was over 100 µM each time.
In the case of `O=P(O)(O)CC1OC(CO)C(O)C1O` (stereo not given), the TGI in the assay with HL-60(TB) leukemia, in the assay on NCI-H460 lung, in the assay with MDA-MB-435, with SNB-19 CNS, with COLO 205 colon and in the assay on HOP-92 NSCLC was over 100 µM in each case. Besides, the TGI with SF-295 CNS, in the assay on M14 melanoma and in the assay with CAKI-1 renal was over 100 µM each time.
As for `COC1C(OC(C)=O)CC(=O)OC(C)C/C=C/C=C\C(O)C(C)CC(CC=O)C1OC1OC(C)C(OC2CC(C)(O)C(OC(=O)CC(C)C)C(C)O2)C(N(C)C)C1O` (stereo not given), in the assay on HL-60(TB) leukemia, the GI50 (in general, the concentration giving 50% growth inhibition) was 36.2 µM and > 100 µM. Also, the TGI with HL-60(TB) leukemia, in the assay on NCI-H460 lung, in the assay with MDA-MB-435, in the assay with SNB-19 CNS, with COLO 205 colon and in the assay on HOP-92 NSCLC was over 100 µM each time. For the same molecule, the TGI in the assay on SF-295 CNS, in the assay on M14 melanoma and with CAKI-1 renal was over 100 µM in each case.
In the case of `CS(=O)(=O)CCC(N)P(=O)(O)O` (stereo not given), the total growth inhibition concentration (TGI) in the assay on HL-60(TB) leukemia, in the assay with NCI-H460 lung, in the assay with MDA-MB-435, in the assay with SNB-19 CNS, in the assay with COLO 205 colon and in the assay on HOP-92 NSCLC was over 100 µM in each case. In addition, the TGI with SF-295 CNS, in the assay with M14 melanoma and in the assay on CAKI-1 renal was over 100 µM in each case.
As to `COc1ncc(C#CC(=O)c2ccccc2)c(OC)n1`, the TGI in the assay on HL-60(TB) leukemia was found to be 4.68 µM; in the assay on NCI-H460 lung, 38 µM; in the assay on MDA-MB-435, 11.5 µM; in the assay on SNB-19 CNS it was 31.6 µM; with COLO 205 colon, 5.08 µM; in the assay on HOP-92 NSCLC it was 4.3 µM. The TGI with SF-295 CNS was 36 µM; in the assay on M14 melanoma it was 10.5 µM; in the assay with CAKI-1 renal it was 7.3 µM.
Consider `COc1cc(OC2OC(CO)C(O)C(O)C2O)c2c(c1)O[C@@H]1[C@H](O)Oc3cc(OC)c(OC)cc3[C@]1(O)C2=O` (stereo not given in full), for which the TGI in the assay on HL-60(TB) leukemia, in the assay on NCI-H460 lung, in the assay on MDA-MB-435, in the assay with SNB-19 CNS, with COLO 205 colon and in the assay on HOP-92 NSCLC was over 25 µM each time. Also, the TGI in the assay on SF-295 CNS, in the assay on M14 melanoma and with CAKI-1 renal was over 25 µM in each case.
`CC1(C)/C(=N\Nc2ccc([N+](=O)[O-])cc2[N+](=O)[O-])C2CCC1C2` (stereo not given): the concentration for total growth inhibition (TGI) in the assay with HL-60(TB) leukemia, with NCI-H460 lung, with MDA-MB-435, in the assay with SNB-19 CNS, in the assay with COLO 205 colon and in the assay on HOP-92 NSCLC was over 100 µM in each case. Moreover, the TGI was 71.5 µM with SF-295 CNS, over 100 µM in the assay with M14 melanoma and over 100 µM in the assay on CAKI-1 renal.
With `C=C(C1=CC(=O)C(C)(C)O1)[C@@H]1CC=C([C@@H]2CC[C@H]3[C@@]2(C)CC[C@H]2C(C)(C)C(=O)[C@H](OC(=O)CC(C)(O)CC(=O)O)C[C@]32C)[C@H](O)O1` (stereo not given in full), the TGI with HL-60(TB) leukemia was 38.4 µM; in the assay with NCI-H460 lung, 40.7 µM; in the assay on MDA-MB-435, 34.2 µM; with SNB-19 CNS it was over 75 µM; in the assay with COLO 205 colon, 24.5 µM; in the assay with HOP-92 NSCLC, 24.7 µM. Moreover, the TGI is over 75 µM with SF-295 CNS, 27 µM with M14 melanoma and 45.8 µM with CAKI-1 renal.
For the molecule `CCN(CCCl)c1cc(CN(C)C)cc(NC(=O)c2ccc(C(=O)Nc3ccccc3)cc2)c1`, the TGI in the assay with HL-60(TB) leukemia stood at 0.695 µM; with NCI-H460 lung, 1.27 µM; in the assay with MDA-MB-435, 0.613 µM; in the assay with SNB-19 CNS, 8.85 µM; in the assay on COLO 205 colon, 2.27 µM; in the assay with HOP-92 NSCLC, 3.87 µM. The TGI with SF-295 CNS amounted to 12.4 µM; with M14 melanoma it was 5.44 µM; in the assay with CAKI-1 renal it was 3.69 µM.
As to `C(/C=C/Nc1ccc(-c2ccccc2)cc1)=Nc1ccc(-c2ccccc2)cc1`, the TGI with HL-60(TB) leukemia, in the assay with NCI-H460 lung, in the assay with MDA-MB-435, with SNB-19 CNS, in the assay with COLO 205 colon and in the assay with HOP-92 NSCLC was over 100 µM in each case. In addition, the TGI in the assay on SF-295 CNS, with M14 melanoma and in the assay with CAKI-1 renal was over 100 µM each time.

The record behind these values is PubChem BioAssay (NCI).
